According to patent US20040266742A1, “Combination therapy of an sodm and a corticosteroid for prevention and/or treatment of inflammatory disease” (priority 2001, published 2004):
Entries after “also recorded” stand apart in the source; their conditions may differ.

Key:
COX-2 = COX-2 immunostaining in paw/joint of collagen-induced arthritis rats; format: in vivo, Lewis rats; details: day 35; low doses alone: DEX 0.01 mg/kg or M40403 2 mg/kg
Protocol: (§1) Immunohistochemical Localization of Nitrotyrosine, PARS, COX-2 and iNOS At day 35, the joints organs were then trimmed, placed in decalcifying solution for 24 hours and 8 μm sections were prepared from paraffin embedded tissues. After deparaffinization, endogenous peroxidase was quenched with 0.3% H2O2 in 60% methanol for 30 minutes. The sections were permeabilized with 0.1% Triton X-100 in PBS for 20 minutes. Non-specific adsorption was minimized by incubating the section in 2% normal goat serum in phosphate buffered saline for 20 minutes. Endogenous biotin or avidin binding sites were blocked by sequential incubation for 15 minutes with avidin and biotin. Sections were incubated overnight with 1) anti-rabbit polyclonal antibody directed at iNOS (1:1000 in PBS, v/v) (DBA, Milan, Italy) or 2) with anti-COX-2 goat policlonal antibody (1:500 in PBS, v/v) or 3) with anti-nitrotyrosine rabbit policlonal antibody (1:1000 in PBS, v/v) or 4) with anti-poly (ADP-Ribose) goat policlonal antibody rat (1:500 in PBS, v/v). Controls included buffer alone or non-specific purified rabbit IgG. Specific labelling was detected with a biotin-conjugated goat anti-rabbit IgG (for nitrotyrosine and iNOS) or with a biotin-conjugated […] and avidin-biotin peroxidase complex. […]

PARS = PARS immunostaining in paw/joint of collagen-induced arthritis rats; format: in vivo, Lewis rats; details: day 35; low doses alone: DEX 0.01 mg/kg or M40403 2 mg/kg
Protocol: as §1

iNOS = iNOS immunostaining in paw/joint of collagen-induced arthritis rats; format: in vivo, Lewis rats; details: day 35; low doses alone: DEX 0.01 mg/kg or M40403 2 mg/kg
Protocol: as §1

[1] = Body weight gain in collagen-induced arthritis rats; format: in vivo, Lewis rats; details: day 25 to 35; low doses alone: DEX 0.01 mg/kg or M40403 2 mg/kg
Description: Animals were randomly divided into six groups (n=10 for each group) as follows: […]

nitrotyrosine = experiment: Nitrotyrosine immunostaining in paw/joint of collagen-induced arthritis rats; format: in vivo, Lewis rats; details: day 35; low doses alone: DEX 0.01 mg/kg or M40403 2 mg/kg
Protocol: as §1

[2] = cited from earlier work
[3] = relative potency; cited from earlier work
[4] = relative potency; cited from earlier work; remark: listed apart in the source
[5] = tested on: carrageenan-induced paw edema; experiment: Carrageenan-induced paw edema in rats; format: in vivo, sprague dawley rats
Protocol: Dexamethasone was given by lavage one hour before carrageenan. […] (1 mg/kg) was given intravenously 15 minutes before carrageenan. Male sprague dawley rats weighing between 200 and 210 g were used. Paw edema was monitored for 6 hours. Results express delta change from basal. Each number is the mean+s.e.m. for n=4 rats per group.

Molecule | Duration (T½, Hours) [2] | Anti-inflammatory Potency [3] | Na+-retaining Potency [4] | other results
[Cl-].[Cl-].[Mn+2].c1cc2nc(c1)CN[C@@H]1CCCC[C@H]1NCCN[C@@H]1CCCC[C@H]1NC2 [M40403] |  |  |  | COX-2 immunostaining in joint (COX-2): had no effect on iNOS or COX-2 staining; PARS immunostaining in joint (PARS): No significant protective effect; iNOS immunostaining in joint (iNOS): had no effect on iNOS or COX-2 staining; Body weight gain [1]: gained weight in a manner that was similar to CIA rats; also recorded: gained significantly less weight than the normal rats; Nitrotyrosine immunostaining in joint (nitrotyrosine): No significant protective effect
C[C@]12C=CC(=O)C=C1CC[C@@H]1[C@@H]2C(=O)C[C@@]2(C)[C@H]1CC[C@]2(O)C(=O)CO [Prednisone] | 12 to 36 h |  |  | 
C[C@H]1C[C@@H]2[C@H]([C@@H](O)C[C@@]3(C)[C@H]2CC[C@]3(O)C(=O)CO)[C@@]2(C)C=CC(=O)C=C12 [6a-Methyl-prednisolone] | 12 to 36 h | 5 | 0.5 | 
C[C@]12CCC(=O)C=C1CC[C@@H]1[C@@H]2[C@@H](O)C[C@@]2(C)[C@H]1CC[C@]2(O)C(=O)CO [Cortisol] | 8 to 12 h | 1 | 1 | 
C[C@]12C=CC(=O)C=C1CC[C@H]1[C@@H]3C[C@@H](O)[C@](O)(C(=O)CO)[C@@]3(C)C[C@H](O)[C@@]12F [Triamcinolone] | 12 to 36 h | 5 | 0 | 
C[C@]12C=CC(=O)C=C1CC[C@@H]1[C@@H]2[C@@H](O)C[C@@]2(C)[C@H]1CC[C@]2(O)C(=O)CO [Prednisolone] | 12 to 36 h | 4 | 0.8 | 
C[C@]12CCC(=O)C=C1CC[C@H]1[C@@H]3CC[C@](O)(C(=O)CO)[C@@]3(C)C[C@H](O)[C@@]12F [Fludrocortisone] | 8 to 12 h |  |  | 
5,10,15,20-tetrakis (2,4,6-trimethyl-3,5-disulfonatophenyl)-porphyrinato iron (III) [FeTMPS] |  |  |  | Paw edema, delta change from basal ([5]; FeTMPS 1 mpk intravenously 15 minutes before carrageenan, 0 h post carrageenan): 0; Paw edema, delta change from basal ([5]; FeTMPS 1 mpk, 1 h post carrageenan): 0.6 ± 0.02; Paw edema, delta change from basal ([5]; FeTMPS 1 mpk, 2 h post carrageenan): 0.9 ± 0.05; Paw edema, delta change from basal ([5]; FeTMPS 1 mpk, 3 h post carrageenan): 1.1 ± 0.01; Paw edema, delta change from basal ([5]; FeTMPS 1 mpk, 4 h post carrageenan): 1.2 ± 0.02; Paw edema, delta change from basal ([5]; FeTMPS 1 mpk, 5 h post carrageenan): 1 ± 0.03; Paw edema, delta change from basal ([5]; FeTMPS 1 mpk, 6 h post carrageenan): 1.3 ± 0.02
C[C@]12CCC(=O)C=C1CC[C@@H]1[C@@H]2C(=O)C[C@@]2(C)[C@H]1CC[C@]2(O)C(=O)CO [Cortisone] |  | 0.8 | 0.8 | 
